Assay results: patent US8445510B2, “Fused bicyclic kinase inhibitors” (OSI Pharmaceuticals, LLC, priority 2011, dated 2013)

Key:
[1] = tested on: MKN45 cells; experiment: MKN45 cell proliferation assay (CellTiter-Glo); type: cell-based; details: Homo sapiens, MKN-45, 72 h; MKN45 cell line; 3 days incubation; at least duplicate experiments; read-out: Prolif. IC50
[2] = target: T1, Aurora B (Homo sapiens, UniProt Q96GD4); experiment: Aurora B cell mechanistic assay (HT-29), phospho-Histone H3 (Ser10) ELISA; type: cell-based; details: HT-29 cell line; inhibition of phospho-Histone H3 (Ser10); at least duplicate experiments (italicized if single experiment); read-out: Aurora B mech IC50
T1 construct: HT-29 cells grown in complete growth media
T1 sequence (Q96GD4 whole entry): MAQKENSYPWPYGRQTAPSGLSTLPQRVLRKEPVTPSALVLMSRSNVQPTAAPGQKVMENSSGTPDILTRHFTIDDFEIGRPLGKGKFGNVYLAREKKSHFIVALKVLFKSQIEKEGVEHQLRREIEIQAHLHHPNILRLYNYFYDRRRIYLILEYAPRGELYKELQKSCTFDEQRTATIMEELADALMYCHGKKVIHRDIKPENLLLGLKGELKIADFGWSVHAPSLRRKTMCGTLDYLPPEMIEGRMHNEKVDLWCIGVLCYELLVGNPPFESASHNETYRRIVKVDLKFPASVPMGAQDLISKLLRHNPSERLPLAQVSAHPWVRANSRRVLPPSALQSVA
Protocol: The cellular activity of the compounds of the present invention against Aurora B may be determined by the following procedure. HT-29 cells grown in complete growth media (McCoy's 5A, 10% FCS, 1% L-glutamine) were plated into wells of a 96 well tissue culture plate (Falcon 3072) at a cell density of 4×10^4 cells/0.09 ml media/well. Cells were subsequently incubated overnight in a 5% CO2 humidified 37° C. incubator. The following day 10 μl of a 10× stock of test compound serially diluted in media was added to the cells and incubated for 1 h at 37° C. at which time Calyculin A (Cell Signaling #9902) was added at a concentration of 100 nM and cells incubated for an additional 30 minutes in a 5% CO2 humidified 37° C. incubator. Media was then aspirated and cells lysed using a Triton based lysis buffer. Lysates were transferred to a pre-coated anti-Histone H3 antibody coated plate supplied by Cell Signaling in their PathScan phospho-Histone H3 (Ser10) ELISA kit (#7155). After an overnight incubation with lysate the ELISA was continued following the manufacturer's instructions. Signal was measured on a Wallac Victor plate reader at 450 nm. DMSO control treated cells served as 100% signal and an Aurora B kinase inhibitor served as 100% inhibition. The percent inhibition of phospho-Histone H3 (Ser10) was expressed as % control. IC50 values were calculated from the percent control data using a standard four-parameter model.
The IC50 values of exemplary compounds of the present invention determined in a Aurora B cell mechanistic assay using the HT-29 cell line according to the procedures described herein in at least duplicate experiments are abbreviated as follows and are shown in Table 4: A, IC50≦0.05 μM; B, 0.05 μM<IC50≦0.2 μM; C, 0.2 μM<IC50≦1 μM; D, IC50>1 μM; ND, not determined. If only data from single experiments are available, the abbreviations are italicized. The Example # of Table 4 corresponds to the compound example number as illustrated in the Examples section.

Row | SMILES | IC50 [1] [nM] | IC50 [2] [nM]
1 | COc1ccc(F)c(Cl)c1[C@@H](C)c1c[nH]c2ncc(-c3cn([C@H]4CC[C@H](C(N)=O)CC4)nc3C)cc12 [Example 19, trans-4-(4-{3-[(1S)-1-(2-Chloro-3-fluoro-6-methoxyphenyl)ethyl]-1H-pyrrolo[2,3-b]pyridin-5-yl}-3-methyl-1H-pyrazol-1-yl)cyclohexanecarboxamide] | ≤ 50 | 50 to 200
2 | CNC(=O)[C@H]1CC[C@H](n2cc(-c3cnc4[nH]cc([C@H](C)c5c(OC)ccc(F)c5Cl)c4c3)c(C)n2)CC1 [Example 22, trans-4-(4-{3-[(1S)-1-(2-Chloro-3-fluoro-6-methoxyphenyl)ethyl]-1H-pyrrolo[2,3-b]pyridin-5-yl}-3-methyl-1H-pyrazol-1-yl)-N-methylcyclohexanecarboxamide] | ≤ 50 | 50 to 200
3 | COc1ccc(F)c(Cl)c1[C@@H](C)c1c[nH]c2ncc(-c3cnn([C@H]4CC[C@H](O)CC4)c3C)cc12 [Example 27, trans-4-(4-{3-[(1S)-1-(2-Chloro-3-fluoro-6-methoxyphenyl)ethyl]-1H-pyrrolo[2,3-b]pyridin-5-yl}-5-methyl-1H-pyrazol-1-yl)cyclohexanol] | ≤ 50 | > 1000
4 | COc1ccc(F)c(Cl)c1[C@@H](C)c1c[nH]c2ncc(-c3cnn([C@@H]4C[C@@H](O)[C@@H](O)C4)c3C)cc12 [Example 31, (1R,2S,4S)-4-(4-{3-[(1S)-1-(2-Chloro-3-fluoro-6-methoxyphenyl)ethyl]-1H-pyrrolo[2,3-b]pyridin-5-yl}-5-methyl-1H-pyrazol-1-yl)cyclopentane-1,2-diol] | ≤ 50 | > 1000
5 | COc1ccc(F)c(Cl)c1[C@@H](C)c1c[nH]c2ncc(-c3cn([C@@H]4C[C@@H](O)[C@@H](O)C4)nc3C)cc12 [Example 32, (1R,2S,4S)-4-(4-{3-[(1S)-1-(2-Chloro-3-fluoro-6-methoxyphenyl)ethyl]-1H-pyrrolo[2,3-b]pyridin-5-yl}-3-methyl-1H-pyrazol-1-yl)cyclopentane-1,2-diol] | ≤ 50 | 50 to 200
6 | COc1ccc(F)c(Cl)c1[C@@H](C)c1c[nH]c2ncc(-c3c(C)nn([C@@H]4C[C@@H](O)[C@@H](O)C4)c3C)cc12 [Example 33, (1R,2S,4S)-4-(4-{3-[(1S)-1-(2-Chloro-3-fluoro-6-methoxyphenyl)ethyl]-1H-pyrrolo[2,3-b]pyridin-5-yl}-3,5-dimethyl-1H-pyrazol-1-yl)cyclopentane-1,2-diol] | ≤ 50 | > 1000
7 | COc1ccc(F)c(Cl)c1[C@@H](C)c1c[nH]c2ncc(-c3cn(C[C@@H](O)CO)nc3C(F)(F)F)cc12 [Example 34, (2R)-3-[4-{3-[(1S)-1-(2-Chloro-3-fluoro-6-methoxyphenyl)ethyl]-1H-pyrrolo[2,3-b]pyridin-5-yl}-3-(trifluoromethyl)-1H-pyrazol-1-yl]propane-1,2-diol] | 50 to 200 | > 1000
8 | COc1ccc(F)c(Cl)c1[C@@H](C)c1c[nH]c2ncc(-c3cnn(C[C@@H](O)CO)c3C(F)(F)F)cc12 [Example 35, (2R)-3-[4-{3-[(1S)-1-(2-Chloro-3-fluoro-6-methoxyphenyl)ethyl]-1H-pyrrolo[2,3-b]pyridin-5-yl}-5-(trifluoromethyl)-1H-pyrazol-1-yl]propane-1,2-diol] | 50 to 200 | > 1000
9 | COc1ccc(F)c(Cl)c1[C@@H](C)c1c[nH]c2ncc(-c3cnn(C)c3N)cc12 [Example 38, 4-{3-[(1S)-1-(2-Chloro-3-fluoro-6-methoxyphenyl)ethyl]-1H-pyrrolo[2,3-b]pyridin-5-yl}-1-methyl-1H-pyrazol-5-amine] | ≤ 50 | 200 to 1000
10 | COc1ccc(F)c(Cl)c1[C@@H](C)c1c[nH]c2ncc(-c3cn(C)nc3C(N)=O)cc12 [Example 39, 4-{3-[(1S)-1-(2-Chloro-3-fluoro-6-methoxyphenyl)ethyl]-1H-pyrrolo[2,3-b]pyridin-5-yl}-1-methyl-1H-pyrazole-3-carboxamide] | 50 to 200 | > 1000
11 | COc1ccc(F)c(Cl)c1[C@@H](C)c1c[nH]c2ncc(-c3c(C)nn(C)c3C(N)=O)cc12 [Example 41, 4-{3-[(1S)-1-(2-Chloro-3-fluoro-6-methoxyphenyl)ethyl]-1H-pyrrolo[2,3-b]pyridin-5-yl}-1,3-dimethyl-1H-pyrazole-5-carboxamide] | > 1000 | > 1000
12 | COc1ccc(F)c(Cl)c1[C@@H](C)c1c[nH]c2ncc(-c3cn(C)nc3CO)cc12 [Example 42, (4-{3-[(1S)-1-(2-Chloro-3-fluoro-6-methoxyphenyl)ethyl]-1H-pyrrolo[2,3-b]pyridin-5-yl}-1-methyl-1H-pyrazol-3-yl)methanol] | 50 to 200 | 200 to 1000
13 | COc1ccc(F)c(Cl)c1[C@@H](C)c1c[nH]c2ncc(-c3cnn(C)c3C(N)=O)cc12 [Example 43, 4-{3-[(1S)-1-(2-Chloro-3-fluoro-6-methoxyphenyl)ethyl]-1H-pyrrolo[2,3-b]pyridin-5-yl}-1-methyl-1H-pyrazole-5-carboxamide] | 200 to 1000 | > 1000
14 | COc1ccc(F)c(Cl)c1[C@@H](C)c1c[nH]c2ncc(-c3cnn(C)c3CO)cc12 [Example 44, (4-{3-[(1S)-1-(2-Chloro-3-fluoro-6-methoxyphenyl)ethyl]-1H-pyrrolo[2,3-b]pyridin-5-yl}-1-methyl-1H-pyrazol-5-yl)methanol] | 50 to 200 | > 1000
15 | COc1ccc(F)c(Cl)c1[C@@H](C)c1c[nH]c2ncc(-c3c(C)nn(C)c3CO)cc12 [Example 45, (4-{3-[(1S)-1-(2-Chloro-3-fluoro-6-methoxyphenyl)ethyl]-1H-pyrrolo[2,3-b]pyridin-5-yl}-1,3-dimethyl-1H-pyrazol-5-yl)methanol] | 200 to 1000 | > 1000
16 | COc1ccc(F)c(Cl)c1[C@@H](C)c1c[nH]c2ncc(-c3cn(C)nc3C#N)cc12 [Example 46, 4-{3-[(1S)-1-(2-Chloro-3-fluoro-6-methoxyphenyl)ethyl]-1H-pyrrolo[2,3-b]pyridin-5-yl}-1-methyl-1H-pyrazole-3-carbonitrile] | 50 to 200 | > 1000
17 | CCc1nn([C@H]2CC[C@H](O)CC2)cc1-c1cnc2[nH]cc([C@H](C)c3c(OC)ccc(F)c3Cl)c2c1 [Example 47, trans-4-(4-{3-[(1S)-1-(2-Chloro-3-fluoro-6-methoxyphenyl)ethyl]-1H-pyrrolo[2,3-b]pyridin-5-yl}-3-ethyl-1H-pyrazol-1-yl)cyclohexanol] | ≤ 50 | > 1000
18 | CCc1c(-c2cnc3[nH]cc([C@H](C)c4c(OC)ccc(F)c4Cl)c3c2)cnn1[C@H]1CC[C@H](O)CC1 [Example 48, trans-4-(4-{3-[(1S)-1-(2-Chloro-3-fluoro-6-methoxyphenyl)ethyl]-1H-pyrrolo[2,3-b]pyridin-5-yl}-5-ethyl-1H-pyrazol-1-yl)cyclohexanol] | ≤ 50 | > 1000
19 | COc1ccc(F)c(Cl)c1[C@@H](C)c1c[nH]c2ncc(-c3cnn([C@H]4CC[C@H](O)CC4)c3Cl)cc12 [Example 49, trans-4-(5-Chloro-4-{3-[(1S)-1-(2-chloro-3-fluoro-6-methoxyphenyl)ethyl]-1H-pyrrolo[2,3-b]pyridin-5-yl}-1H-pyrazol-1-yl)cyclohexanol] | ≤ 50 | > 1000
20 | COc1ccc(F)c(Cl)c1[C@@H](C)c1c[nH]c2ncc(-c3cn(C)nc3CN)cc12 [Example 50, 1-(4-{3-[(1S)-1-(2-Chloro-3-fluoro-6-methoxyphenyl)ethyl]-1H-pyrrolo[2,3-b]pyridin-5-yl}-1-methyl-1H-pyrazol-3-yl)methanamine] | 50 to 200 | 200 to 1000
21 | COc1ccc(F)c(Cl)c1[C@@H](C)c1c[nH]c2ncc(-c3c(CO)nn(C)c3C)cc12 [Example 51, (4-{3-[(1S)-1-(2-Chloro-3-fluoro-6-methoxyphenyl)ethyl]-1H-pyrrolo[2,3-b]pyridin-5-yl}-1,5-dimethyl-1H-pyrazol-3-yl)methanol] | 50 to 200 | > 1000
22 | COc1ccc(F)c(Cl)c1[C@@H](C)c1c[nH]c2ncc(-c3cnn([C@H]4CC[C@@H](O)CC4)c3C)cc12 [Example 52, cis-4-(4-{3-[(1S)-1-(2-Chloro-3-fluoro-6-methoxyphenyl)ethyl]-1H-pyrrolo[2,3-b]pyridin-5-yl}-5-methyl-1H-pyrazol-1-yl)cyclohexanol] | ≤ 50 | > 1000
23 | COc1ccc(F)c(Cl)c1[C@@H](C)c1c[nH]c2ncc(-c3cnn([C@H]4CC[C@H](N(C)C)CC4)c3C)cc12 [Example 53, trans-4-(4-{3-[(1S)-1-(2-Chloro-3-fluoro-6-methoxyphenyl)ethyl]-1H-pyrrolo[2,3-b]pyridin-5-yl}-5-methyl-1H-pyrazol-1-yl)-N,N-dimethylcyclohexanamine] | ≤ 50 | 50 to 200
